Test results taken from ChEMBL document CHEMBL1147283, “Bullatacin and bullatacinone: two highly potent bioactive acetogenins from Annona bullata” (J Nat Prod, 1989).
≈ marks a conversion by molar mass, not a printed value. Calls of active or inactive are those of the source. No cut-off for these calls is given here.

Experiments:
[1] = Toxicity in brine shrimp; type: organism-based; settings: artemia, in vivo
[2] = (§1) Cytotoxicity against mouse 9PS cells; type: functional; settings: read-out: ED50 (the source's name)
[3] = (§2) Cytotoxicity against human 9KB cells; type: functional
HT-29 = test: Cytotoxicity against human HT-29 cells; type: functional, cell-based
A549 = test: Cytotoxicity against human A549 cells; type: functional, cell-based; settings: for EC50: Homo sapiens, A549, read-out: ED50 (the source's name)
Tetranychus urticae [4] = test: Pesticidal activity against Tetranychus urticae at 10 ppm relative to control; type: functional
[5] = test system: Diabrotica undecimpunctata; test: Pesticidal activity against Diabrotica undecimpunctata howardi at 24 ppm relative to control; type: functional
Aedes aegypti [6] = test: Pesticidal activity against Aedes aegypti larvae at 1 ppm relative to control; type: functional
Aphis gossypii [7] = test: Pesticidal activity against Aphis gossypii at 400 ppm relative to control; type: functional
Spodoptera eridania [8] = test: Pesticidal activity against Spodoptera eridania at 100 ppm relative to control; type: functional
[9] = test system: Diabrotica undecimpunctata; test: Pesticidal activity against Diabrotica undecimpunctata howardi at 6 ppm relative to control; type: functional
Aedes aegypti [10] = test: Pesticidal activity against Aedes aegypti larvae at 0.5 ppm relative to control; type: functional
Aphis gossypii [11] = test: Pesticidal activity against Aphis gossypii at 10 ppm relative to control; type: functional
Spodoptera eridania [12] = test: Pesticidal activity against Spodoptera eridania at 400 ppm relative to control; type: functional
Aphis gossypii [13] = test: Pesticidal activity against Aphis gossypii at 100 ppm relative to control; type: functional
Tetranychus urticae [14] = test: Pesticidal activity against Tetranychus urticae at 100 ppm relative to control; type: functional
Aedes aegypti [15] = test: Pesticidal activity against Aedes aegypti larvae at 10 ppm relative to control; type: functional
Tetranychus urticae [16] = test: Pesticidal activity against Tetranychus urticae at 400 ppm relative to control; type: functional
[17] = Displacement of radiolabeled ligand form protein kinase C at 10 uM
Mus musculus = organism: Mus musculus; test: as §1; type: functional
9KB = test: as §2; type: functional

**Q.** With C=C1C[C@@]23CC[C@H]4[C@@](C)(CCC[C@]4(C)C(=O)O)[C@@H]2CCC1C3 as the molecule, how does the LC50 [1] read?
**A.** Its LC50 is 0.87 µg/mL (≈ 2.88 µM).

**Q.** For CCCCCCCCCC[C@H](OC(C)=O)[C@H]1CC[C@H]([C@H]2CC[C@H]([C@@H](CCCCCCCCCC[C@H](CC3=C[C@H](C)OC3=O)OC(C)=O)OC(C)=O)O2)O1 [BULLATACIN TRIACETATE], which EC50 [2] is on record?
**A.** Its EC50 is 0.00389 µg/mL.

**Q.** What about the ED50 [3] of the same molecule?
**A.** Its ED50 is 6.85 ×10⁻⁷ ug/ml.

**Q.** What about the EC50 (HT-29; Homo sapiens, HT-29, read-out: ED50 (the source's name)) of the same molecule?
**A.** The EC50 was greater than 0.1 µg/mL.

**Q.** What about the EC50 (A549) of the same molecule?
**A.** The EC50 was 0.002 µg/mL.

**Q.** What about the LC50 [1] of the same molecule?
**A.** The LC50 was 5.7 µg/mL.

**Q.** Which results are given for CCCCCCCCCC[C@H](OC(C)=O)[C@H]1CC[C@H]([C@H]2CC[C@H]([C@@H](CCCCCCCCCC[C@@H]3C[C@@H](CC(C)=O)C(=O)O3)OC(C)=O)O2)O1 [BULLATACINONE DIACETATE]?
**A.** EC50 [2]: 0.0422 µg/mL; EC50 ([3]; Homo sapiens, 9KB, read-out: ED50 (the source's name)): 0.005 µg/mL; ED50 (HT-29): 1 ×10⁻¹ umol/L; EC50 (A549): 0.028 µg/mL; LC50 [1]: > 10 µg/mL

**Q.** Which EC50 [2] does the source give for CCCCCCCCCC[C@H](O)[C@H]1CC[C@H]([C@H]2CC[C@H]([C@H](O)CCCCCCCCCC[C@@H]3CC(CC(C)=O)C(=O)O3)O2)O1 (stereo partly specified) [BULLATACINONE] here?
**A.** Its EC50 is 0.00423 µg/mL (≈ 0.00679 µM).

**Q.** And the Activity (Tetranychus urticae [4])?
**A.** Its Activity is 0%.

**Q.** What about the ED50 [3] of the same molecule?
**A.** The ED50 was less than 1 ×10⁻¹² ug/ml.

**Q.** And the Activity [5]?
**A.** Its Activity is 0%.

**Q.** And the Activity (Aedes aegypti [6])?
**A.** The Activity was 0%.

**Q.** And the Activity (Aphis gossypii [7])?
**A.** The Activity was 0%.

**Q.** And the Activity (Spodoptera eridania [8])?
**A.** Its Activity is 0%.

**Q.** What about the Activity [9] of the same molecule?
**A.** The Activity was 0%.

**Q.** And the Activity (Aedes aegypti [10])?
**A.** The Activity was 0%.

**Q.** And the Activity (Aphis gossypii [11])?
**A.** Its Activity is 0%.

**Q.** And the Activity (Spodoptera eridania [12])?
**A.** The Activity was 0%.

**Q.** And the ED50 (HT-29)?
**A.** The ED50 was 5 ×10⁻¹² ug/ml.

**Q.** And the EC50 (A549)?
**A.** The EC50 was 0.001 µg/mL (≈ 0.00161 µM).

**Q.** What about the Activity (Aphis gossypii [13]) of the same molecule?
**A.** Its Activity is 0%.

**Q.** And the Activity (Tetranychus urticae [14])?
**A.** Its Activity is 0%.

**Q.** And the LC50 [1]?
**A.** Its LC50 is 0.003 µg/mL (≈ 0.00482 µM).

**Q.** And the Activity (Aedes aegypti [15])?
**A.** Its Activity is 0%.

**Q.** What about the Activity (Tetranychus urticae [16]) of the same molecule?
**A.** Its Activity is 0%.

**Q.** With CCCCCCCCCC[C@@H](O)[C@@H]1CC[C@@H]([C@@H]2CC[C@@H]([C@H](O)CCCCCCCCCC(O)CC3=CC(C)OC3=O)O2)O1 (stereo partly specified) [BULLATACIN] as the molecule, how does the Activity [17] read?
**A.** The Activity was 7%.

**Q.** What does the source list for CCCCCCCCCC[C@H](O)[C@H]1CC[C@H]([C@H]2CC[C@H]([C@H](O)CCCCCCCCCC[C@@H](O)CC3C[C@H](C)OC3=O)O2)O1 (stereo partly specified) [DIHYDROBULLATACIN]?
**A.** ED50 (HT-29): 3.33 ×10⁻⁵ ug/ml; ED50 (A549): <1 ×10⁻⁶ ug/ml; LC50 [1]: 0.0145 µg/mL (≈ 0.0232 µM)

**Q.** With O=C1c2ccccc2-c2c3c(cc4ccnc1c24)OCO3 [LIRIODENINE] as the molecule, how does the Activity (Mus musculus) read?
**A.** The Activity was “inactive”.

**Q.** And the Activity (9KB)?
**A.** Its Activity is “inactive”.

**Q.** And the LC50 [1]?
**A.** Its LC50 is 1.1 µg/mL (≈ 4 µM).
